Assay results from patent US20100298347A1, “SUBSTITUTED 2-NAPHTHOIC ACIDS AS ANTAGONISTS OF GPR105 ACTIVITY” (MERCK FROSST CANADA LTD, priority 2007, published 2010).
pIC50: −log10 of the molar value.

Molecular target: T1, chimpanzee GPR105 protein (Pan troglodytes, UniProt A0A2J8P2M1)
T1 construct: expressed in transfected cells
T1 sequence (A0A2J8P2M1 1-338): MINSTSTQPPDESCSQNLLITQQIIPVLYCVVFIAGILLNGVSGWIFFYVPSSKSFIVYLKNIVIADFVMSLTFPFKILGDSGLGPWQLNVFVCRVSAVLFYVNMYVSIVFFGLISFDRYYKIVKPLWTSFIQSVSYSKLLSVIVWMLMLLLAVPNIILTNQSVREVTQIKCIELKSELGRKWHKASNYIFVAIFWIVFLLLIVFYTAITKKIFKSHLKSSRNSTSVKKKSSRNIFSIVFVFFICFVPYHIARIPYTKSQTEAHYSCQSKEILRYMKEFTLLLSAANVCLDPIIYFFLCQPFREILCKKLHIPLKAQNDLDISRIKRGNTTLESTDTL
Assay: Cell-Binding Assay: FLIPR calcium signaling in HEK/GPR105/Gqi5 cells, inhibition of UDP-glucose agonist
Format: cell-based
Details: HEK cells expressing chimpanzee GPR105 and Gqi5; UDP-glucose agonist at EC80; inhibition of Ca2+ signaling by FLIPR
Description: A stable HEK clonal cell line expressing the chimpanzee GPR105 protein and the chimeric G protein Gqi5 was developed. The chimeric Gqi5 forces the coupling of GPR105 through the Gq (calcium) pathway and allows for monitoring of calcium signaling using a calcium binding fluorescent dye and the FLIPR (fluorometric imaging plate reader, MDS Sciex). 12,500 HEK/GPR105/Gqi5 expressing cells were plated in 25 μL Dulbecco's Modified Eagle's Medium (DMEM) containing 10% fetal bovine serum (FBS) onto 384-well, poly-D-lysine coated plates. Cells were incubated overnight at 37° C. and 5% CO2 to form a monolayer. On the following day, 30 μl, of fluorescent no-wash dye was added to the cell monolayer and the plate was incubated for […] at 37° C., 5% CO2. […] of compound in 100% DMSO was added to cell/dye incubation using acoustic dispensing (Echo™, Labcyte). Following a 20 minute incubation of compound at room temperature, 6.25 μL of UDP-glucose agonist (at EC80) in Hank's Balanced Salt Solution (HBSS) containing 20 mM Hepes was added to cells and Ca^2+ signaling was monitored by FLIPR. Quantitation of the % inhibition of Ca^2+ signaling by antagonist was calculated using the maximum fluorescent signal detected. IC50's for the compounds of structural formula (I) were calculated as follows:
a.) Basal=incubation of cells+DMSO+Buffer; b.) EC80=incubation of cells of DMSO+agonist to achieve 80% maximum stimulation of calcium release; c.) Compound=incubation of cells+antagonist in DMSO+EC80 agonist; d.) Calcium release monitored by Fluorescence (RFU relative fluorescence units) using the FLIPR; e.) The percentage of inhibition was calculated according to the equation: (1−(compound sample−Basal)/(EC80−Basal))×100; f.) The percentage of inhibition at each dose was plotted, the Four Parameter Logistic Fit performed to draw the curve and the IC50 is the compound dose where the % inhibition=50%.

Row | Structure (SMILES) | pIC50
1 | O=C(O)c1cc(-c2ccc(C3CCNCC3)cc2)c2ccc(-c3ccc(C(F)(F)F)cc3)cc2c1 | 8.66
2 | O=C(O)c1cc(-c2ccc(-c3cn4cccnc4n3)cc2)c2ccc(-c3ccc(C(F)(F)F)cc3)cc2c1 | 8.52
3 | O=C(O)c1cc(-c2ccc([C@@H](O)C(F)F)cc2)c2ccc(-c3ccc(C(F)(F)F)cc3)cc2c1 | 8.27
4 | O=C(O)c1cc(-c2ccc(C3(O)CCNCC3)cc2)c2ccc(-c3ccc(C(F)(F)F)cc3)cc2c1 | 8.20
5 | O=C(O)c1cc(-c2csc(C(O)C(F)F)c2)c2ccc(-c3ccc(C(F)(F)F)cc3)cc2c1 (centres unmarked) | 8.15
6 | Cc1cccc(C)c1COc1ccc2c(-c3ccc(C(=O)O)cc3)cc(C(=O)O)cc2c1 | 7.96
7 | O=C(O)c1cc(-c2ccc([C@@H](O)C(F)(F)F)cc2)c2ccc(-c3ccc(C(F)(F)F)cc3)cc2c1 | 7.95
8 | Cc1cccc(C)c1COc1ccc2c(-c3ccc(S(C)(=O)=O)cc3)cc(C(=O)O)cc2c1 | 7.92
9 | CS(=O)(=O)c1cc(-c2cc(C(=O)O)cc3cc(-c4ccc(C(F)(F)F)cc4)ccc23)cs1 | 7.91
10 | CSc1ccc(-c2ccc3c(-c4ccc([C@@H](O)C(F)F)cc4)cc(C(=O)O)cc3c2)cc1 | 7.91
11 | O=C(O)c1cc(-c2ccc(C(O)C(F)(F)F)cc2)c2ccc(-c3ccc(C(F)(F)F)cc3)cc2c1 (centres unmarked) | 7.89
12 | O=C(O)c1cc(-c2ccc(-c3nnc[nH]3)cc2)c2ccc(-c3ccc(C(F)(F)F)cc3)cc2c1 | 7.88
13 | C[S+]([O-])c1ccc(-c2cc(C(=O)O)cc3cc(-c4ccc(C(F)(F)F)cc4)ccc23)cc1 (centres unmarked) | 7.86
14 | O=C(O)c1cc(-c2ccc([C@@H](O)C(F)F)cc2)c2ccc(-c3ccc(F)cc3)cc2c1 | 7.85
15 | COc1ccccc1COc1cc(C(=O)O)cc2cc(OCc3c(C)cccc3C)ccc12 | 7.85
16 | Cc1cccc(C)c1COc1ccc2c(-c3ccc(C(C)(C)O)cc3)cc(C(=O)O)cc2c1 | 7.79
17 | Cc1cccc(C)c1COc1ccc2c(-c3ccc4c(c3)OCO4)cc(C(=O)O)cc2c1 | 7.71
18 | Cc1cccc(C)c1COc1ccc2c(OCc3ccccc3)cc(C(=O)O)cc2c1 | 7.67
19 | CS(=O)(=O)c1cc(-c2cc(C(=O)O)cc3cc(-c4ccc(OC(F)(F)F)cc4)ccc23)cs1 | 7.62
20 | O=C(O)c1cc2cc(-c3ccc(C(F)(F)F)cc3)ccc2c(-c2ccc([C@@H](O)C(F)F)cc2)c1F | 7.61
21 | O=C(O)c1cc2cc(-c3ccc(C(F)(F)F)cc3)ccc2c(-c2ccc([C@H](O)C(F)(F)F)cc2)c1F | 7.59

Other lines, results leading:

Row | pIC50 | Structure (SMILES)
22 | 8.14 | O=C(O)c1cc(-c2ccsc2)c2ccc(OCc3c(Cl)ccc(Cl)c3Cl)cc2c1
23 | 8.03 | O=C(O)c1cc(-c2ccsc2)c2ccc(OCc3c(Cl)cccc3Cl)cc2c1
24 | 7.98 | O=C(O)c1cc(-c2ccsc2)c2ccc(OCc3c(F)cc(F)cc3F)cc2c1
25 | 7.90 | O=C(O)c1cc(-c2ccsc2)c2ccc(OCc3c(F)cccc3Cl)cc2c1
26 | 7.90 | O=C(O)c1cc(-c2ccsc2)c2ccc(-c3ccc(OC(F)(F)F)cc3)cc2c1
27 | 7.84 | Cc1cc(F)cc(C)c1COc1ccc2c(-c3ccsc3)cc(C(=O)O)cc2c1
28 | 7.79 | Cc1cccc(C)c1COc1ccc2c(-c3ccsc3)cc(C(=O)O)cc2c1
29 | 7.78 | Cc1cccc(C)c1COc1ccc2c(-c3ccc(CO)cc3)cc(C(=O)O)cc2c1
30 | 7.77 | Cc1ccc(C(F)(F)F)cc1COc1ccc2c(-c3ccsc3)cc(C(=O)O)cc2c1
31 | 7.76 | CC(=O)c1ccc(-c2cc(C(=O)O)cc3cc(OCc4c(C)cccc4C)ccc23)cc1
32 | 7.75 | O=C(O)c1cc(-c2ccsc2)c2ccc(OCc3c(Cl)cccc3Br)cc2c1
33 | 7.74 | Cc1cccc(C)c1COc1ccc2c(-c3ccc(O)cc3)cc(C(=O)O)cc2c1
34 | 7.69 | Cc1ccc(Cl)c(COc2ccc3c(-c4ccsc4)cc(C(=O)O)cc3c2)c1F
35 | 7.66 | O=C(O)c1cc(-c2ccccc2)c2ccc(OCc3c(Cl)ccc(Cl)c3Cl)cc2c1
36 | 7.65 | Cc1cccc(C)c1COc1ccc2c(-c3ccc(C=O)cc3)cc(C(=O)O)cc2c1
37 | 7.65 | O=C(O)c1cc(-c2ccsc2)c2ccc(OCc3c(F)cccc3F)cc2c1
38 | 7.61 | O=C(O)c1cc(-c2ccsc2)c2ccc(OCc3c(Br)cccc3Br)cc2c1
39 | 7.59 | O=C(O)c1cc(-c2ccsc2)c2ccc(OCc3cc(C(F)(F)F)ccc3Cl)cc2c1
40 | 8.12 | O=C(O)c1cc(-c2ccsc2)c2ccc(OCc3c(Cl)cncc3Cl)cc2c1 [drawing 14]
41 | 7.82 | O=C(O)c1cc(-c2ccsc2)c2ccc(OCc3c(Cl)cncc3Cl)cc2c1 [drawing 30]
